Our source for the IC50 values is patent publication US7683079B2, “4-aminopiperidine derivatives” (Hoffmann-La Roche Inc., priority 2004, dated 2010).

This test deals with T1, human DPP-IV (Homo sapiens, UniProt P27487).
T1 construct: made in house; host or cells: Pichia pastoris
T1 sequence (P27487 31-766): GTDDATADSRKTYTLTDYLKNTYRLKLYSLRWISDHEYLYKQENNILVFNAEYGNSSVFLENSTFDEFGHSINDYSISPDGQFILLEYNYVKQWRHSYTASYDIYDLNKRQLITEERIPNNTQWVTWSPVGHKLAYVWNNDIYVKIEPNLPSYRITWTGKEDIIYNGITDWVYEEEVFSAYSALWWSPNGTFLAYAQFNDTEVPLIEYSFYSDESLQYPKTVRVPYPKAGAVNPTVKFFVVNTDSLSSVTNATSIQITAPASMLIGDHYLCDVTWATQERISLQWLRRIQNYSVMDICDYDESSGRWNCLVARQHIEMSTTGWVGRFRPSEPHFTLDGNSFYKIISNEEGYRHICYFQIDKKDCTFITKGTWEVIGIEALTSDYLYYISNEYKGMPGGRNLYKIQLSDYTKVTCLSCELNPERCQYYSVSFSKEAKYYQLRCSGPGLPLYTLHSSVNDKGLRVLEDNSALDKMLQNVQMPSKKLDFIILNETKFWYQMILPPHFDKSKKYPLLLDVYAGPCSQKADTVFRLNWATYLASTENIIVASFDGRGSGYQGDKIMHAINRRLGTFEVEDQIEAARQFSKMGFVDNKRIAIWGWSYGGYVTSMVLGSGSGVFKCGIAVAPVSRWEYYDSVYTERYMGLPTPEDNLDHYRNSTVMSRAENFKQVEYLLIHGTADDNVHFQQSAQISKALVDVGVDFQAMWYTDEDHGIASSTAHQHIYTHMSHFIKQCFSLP
The test is described as follows: DPP-IV activity assay (fluorometric/colorimetric), IC50 determination. The settings on record: natural human DPP-IV from human plasma pool or recombinant human DPP-IV; 37° C., pH 7.8; substrate 50 μM (fluorogenic) or 200 μM (colorimetric). Type of test: biochemical. On the procedure:
Activity of DPP-IV inhibitors are tested with natural human DPP-IV derived from a human plasma pool or with recombinant human DPP-IV. […] In the calorimetric DPP-IV assay 5 to 10 μl human plasma and in the fluorometric assay 1.0 μl of human plasma in a total assay volume of 100 μl is used as an enzyme source. […] Human DPP-IV is expressed and purified from the culture medium using conventional column chromatography including size exclusion and anion and cation chromatography.
A 20 mM stock solution in 10% DMF/H2O is stored at −20° C. until use.
A 10 mM stock solution in 10% MeOH/H2O is stored at −20° C. until use.
Fluorescence is detected in a Perkin Elmer Luminescence Spectrometer LS 50B at an excitation wavelength of 400 nm and an emission wavelength of 505 nm continuously every 15 seconds for 10 to 30 minutes. Initial rate constants are calculated by best fit linear regression.
Initial rate constants are calculated by best fit linear regression.
DPP-IV activity assays are performed in 96 well plates at 37° C. in a total assay volume of 100 μl. The assay buffer consists of 50 mM Tris/HCl pH 7.8 containing 0.1 mg/ml BSA and 100 mM NaCl. […] Enzyme reactions are started with substrate application followed by immediate mixing.
As for `NC1CCN(CCc2ccccc2)CC1c1cccc(Cl)c1` (stereo not drawn) [Example 23, 3-(3-Chloro-phenyl)-1-phenethyl-piperidine-4-ylamine], the IC50 stood at 160 nM.

On to `COc1ccc(N2CC[C@@H](N)[C@@H](C(=O)N3CCSC3)C2)cc1OC` (racemic) [Example 40, 3 [(3S,4R) and (3R,4S)-4-Amino-1-(3,4-dimethoxy-phenyl)-piperidine-3-yl]-thiazolidin-3-yl-methanone], for which the IC50 is 820 nM.

Turning to `N[C@@H]1CCN(CCc2ccccn2)C[C@@H]1C(=O)N1CCSC1` [Example 36], the IC50 worked out at 290 nM.
